Measured values from patent US6638973B2, “Taxane formulations” (FSU Research Foundation, Inc., priority 2000, dated 2003).

Tested on: HCT116 cells
Test: In vitro cytotoxicity measured by the cell colony formation assay
Assay type: cell-based
Details: HCT116 cells, 72 h incubation with drug, colonies counted after 7 days; ID50 = drug concentration producing 50% inhibition of colony formation; read-out: IN VITRO ID 50 (nm) HCT116
Method in brief: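 Colony-forming survival was scored 7 days after a 72 h, 37 °C compound exposure followed by washout into fresh medium.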

Row | SMILES | IC50 [nM]
1 | C/C=C/C(=O)N[C@@H](c1cccs1)[C@@H](O)C(=O)O[C@H]1C[C@@]2(O)[C@@H](OC(=O)c3ccccc3)C3[C@](C)(C(=O)[C@H](O)C(=C1C)C2(C)C)[C@@H](OC(=O)OCc1ccccc1)C[C@H]1OC[C@@]31OC(C)=O (stereo partly shown) [Compound 6566] | < 10
2 | COC(=O)O[C@H]1C[C@H]2OC[C@@]2(OC(C)=O)C2[C@H](OC(=O)c3ccccc3)[C@]3(O)C[C@H](OC(=O)[C@H](O)[C@@H](NC(=O)OCC(C)C)C4CC4)C(C)=C([C@@H](O)C(=O)[C@@]21C)C3(C)C (stereo partly shown) [Compound 5211] | < 10
3 | C/C=C/C(=O)N[C@@H](c1ccsc1)[C@@H](O)C(=O)O[C@H]1C[C@@]2(O)[C@@H](OC(=O)c3ccccc3)C3[C@](C)(C(=O)[C@H](O)C(=C1C)C2(C)C)[C@@H](OC(=O)OCC)C[C@H]1OC[C@@]31OC(C)=O (stereo partly shown) [Compound 4999] | < 1
4 | CCOC(=O)O[C@H]1C(=O)[C@@]2(C)C([C@H](OC(=O)c3ccccc3)[C@]3(O)C[C@H](OC(=O)[C@H](O)[C@@H](NC(=O)OC(C)(C)C)c4ccncc4)C(C)=C1C3(C)C)[C@]1(OC(C)=O)CO[C@@H]1C[C@@H]2O (stereo partly shown) [Compound 1811] | < 1
5 | CC(=O)O[C@H]1C[C@H]2OC[C@@]2(OC(C)=O)C2[C@H](OC(=O)c3ccccc3)[C@]3(O)C[C@H](OC(=O)[C@H](O)[C@@H](NC(=O)OC(C)(C)C)C4CC4)C(C)=C([C@@H](O)C(=O)[C@@]21C)C3(C)C (stereo partly shown) [Compound 4555] | < 1
6 | CCC(C)(C)OC(=O)N[C@@H](c1ccco1)[C@@H](O)C(=O)O[C@H]1C[C@@]2(O)[C@@H](OC(=O)c3ccccc3)C3[C@](C)(C(=O)[C@H](O)C(=C1C)C2(C)C)[C@@H](OC(=O)OCc1ccccc1)C[C@H]1OC[C@@]31OC(C)=O (stereo partly shown) [Compound 6246] | < 1
7 | COC(=O)O[C@H]1C[C@H]2OC[C@@]2(OC(C)=O)C2[C@H](OC(=O)c3ccccc3)[C@]3(O)C[C@H](OC(=O)[C@H](O)[C@@H](NC(=O)OC(C)(C)C)c4ccco4)C(C)=C([C@@H](O)C(=O)[C@@]21C)C3(C)C (stereo partly shown) [Compound 4533] | < 1
8 | CCOC(=O)O[C@H]1C(=O)[C@@]2(C)C([C@H](OC(=O)c3ccccc3)[C@]3(O)C[C@H](OC(=O)[C@H](O)[C@@H](NC(=O)OC(C)C)c4cccs4)C(C)=C1C3(C)C)[C@]1(OC(C)=O)CO[C@@H]1C[C@@H]2O (stereo partly shown) [Compound 2999] | < 1

Same assay, conditions: HCT116 colony formation; 72 h drug incubation, colonies counted after 7 days; Example 5, C-7 ester/C-10 hydroxy taxanes; read-out: IN VITRO ID 50 (nm) HCT116

Row | SMILES | IC50 [nM]
9 | CCC(=O)O[C@H]1C[C@H]2OC[C@@]2(OC(C)=O)C2[C@H](OC(=O)c3ccccc3)[C@]3(O)C[C@H](OC(=O)[C@H](O)[C@@H](NC(=O)OC=C(C)C)c4ccco4)C(C)=C([C@@H](O)C(=O)[C@@]21C)C3(C)C (stereo partly shown) [Compound 6171] | < 10
10 | C/C=C/C(=O)N[C@@H](c1ccoc1)[C@@H](O)C(=O)O[C@H]1C[C@@]2(O)[C@@H](OC(=O)c3ccccc3)C3[C@](C)(C(=O)[C@H](O)C(=C1C)C2(C)C)[C@@H](OC(=O)CC)C[C@H]1OC[C@@]31OC(C)=O (stereo partly shown) [Compound 4898] | < 1
11 | C/C=C/C(=O)N[C@@H](c1ccsc1)[C@@H](O)C(=O)O[C@H]1C[C@@]2(O)[C@@H](OC(=O)c3ccccc3)C3[C@](C)(C(=O)[C@H](O)C(=C1C)C2(C)C)[C@@H](OC(=O)CCC)C[C@H]1OC[C@@]31OC(C)=O (stereo partly shown) [Compound 5030] | < 1
12 | CCC(=O)O[C@H]1C[C@H]2OC[C@@]2(OC(C)=O)C2[C@H](OC(=O)c3ccccc3)[C@]3(O)C[C@H](OC(=O)[C@H](O)[C@@H](NC(=O)OC(C)(C)CC)c4ccco4)C(C)=C([C@@H](O)C(=O)[C@@]21C)C3(C)C (stereo partly shown) [Compound 6424] | 21.7
13 | CCC(=O)O[C@H]1C[C@H]2OC[C@@]2(OC(C)=O)C2[C@H](OC(=O)c3ccccc3)[C@]3(O)C[C@H](OC(=O)[C@H](O)[C@@H](NC(=O)OC(C)(C)C)C(C)C)C(C)=C([C@@H](O)C(=O)[C@@]21C)C3(C)C (stereo partly shown) [Compound 1434] | < 10
14 | CCC(=O)O[C@H]1C[C@H]2OC[C@@]2(OC(C)=O)C2[C@H](OC(=O)c3ccccc3)[C@]3(O)C[C@H](OC(=O)[C@H](O)[C@@H](NC(=O)c4cccs4)c4ccco4)C(C)=C([C@@H](O)C(=O)[C@@]21C)C3(C)C (stereo partly shown) [Compound 3632] | < 1
15 | CCCC(=O)O[C@H]1C[C@H]2OC[C@@]2(OC(C)=O)C2[C@H](OC(=O)c3ccccc3)[C@]3(O)C[C@H](OC(=O)[C@H](O)[C@@H](NC(=O)C=C(C)C)c4cccs4)C(C)=C([C@@H](O)C(=O)[C@@]21C)C3(C)C (stereo partly shown) [Compound 4283] | < 1

Same assay, conditions: HCT116 colony formation; 72 h drug incubation, colonies counted after 7 days; Example 10, C-10 ester/C-7 hydroxy taxanes; read-out: IN VITRO ID 50 (nm) HCT116

Row | SMILES | IC50 [nM]
16 | CCC(=O)O[C@H]1C(=O)[C@@]2(C)C([C@H](OC(=O)c3ccccc3)[C@]3(O)C[C@H](OC(=O)[C@H](O)[C@@H](NC(=O)c4ccncc4)c4cccs4)C(C)=C1C3(C)C)[C@]1(OC(C)=O)CO[C@@H]1C[C@@H]2O (stereo partly shown) [Compound 4207] | < 10
17 | C/C=C/C(=O)N[C@@H](c1ccsc1)[C@@H](O)C(=O)O[C@H]1C[C@@]2(O)[C@@H](OC(=O)c3ccccc3)C3[C@](C)(C(=O)[C@H](OC(=O)C4CC4)C(=C1C)C2(C)C)[C@@H](O)C[C@H]1OC[C@@]31OC(C)=O (stereo partly shown) [Compound 5040] | < 1
18 | CCCC(=O)O[C@H]1C(=O)[C@@]2(C)C([C@H](OC(=O)c3ccccc3)[C@]3(O)C[C@H](OC(=O)[C@H](O)[C@H](C=C(C)C)NC(=O)OCC(C)C)C(C)=C1C3(C)C)[C@]1(OC(C)=O)CO[C@@H]1C[C@@H]2O (stereo partly shown) [Compound 5144] | < 10
19 | CC(=O)O[C@@]12CO[C@@H]1C[C@H](O)[C@@]1(C)C(=O)[C@H](OC(=O)C3CC3)C3=C(C)[C@@H](OC(=O)[C@H](O)[C@@H](NC(=O)OC(C)(C)C)c4ccccn4)C[C@@](O)([C@@H](OC(=O)c4ccccc4)C12)C3(C)C (stereo partly shown) [Compound 2802] | < 1
20 | CC(=O)OC12COC1CC(O)C1(C)C(=O)C(OC(=O)c3ccco3)C3=C(C)C(OC(=O)C(O)C(NC(=O)OC(C)(C)C)c4ccccn4)CC(O)(C(OC(=O)c4ccccc4)C21)C3(C)C (stereo not shown) [Compound 2111] | < 1
21 | CC(=O)OC12COC1CC(O)C1(C)C(=O)C(OC(=O)c3ccco3)C3=C(C)C(OC(=O)C(O)C(NC(=O)OC(C)(C)C)c4cccs4)CC(O)(C(OC(=O)c4ccccc4)C21)C3(C)C (stereo not shown) [Compound 2164] | < 1
22 | CC(=O)OC12COC1CC(O)C1(C)C(=O)C(OC(=O)c3cccs3)C3=C(C)C(OC(=O)C(O)C(NC(=O)OC(C)(C)C)c4ccccn4)CC(O)(C(OC(=O)c4ccccc4)C21)C3(C)C (stereo not shown) [Compound 1883] | < 10
23 | CCC(=O)O[C@H]1C(=O)[C@@]2(C)C([C@H](OC(=O)c3ccccc3)[C@]3(O)C[C@H](OC(=O)[C@H](O)[C@@H](NC(=O)OCC(C)C)C4CC4)C(C)=C1C3(C)C)[C@]1(OC(C)=O)CO[C@@H]1C[C@@H]2O (stereo partly shown) [Compound 4799] | < 1
24 | CCC(=O)O[C@H]1C(=O)[C@@]2(C)C([C@H](OC(=O)c3ccccc3)[C@]3(O)C[C@H](OC(=O)[C@H](O)[C@@H](NC(=O)OC(C)(C)C)c4ccoc4)C(C)=C1C3(C)C)[C@]1(OC(C)=O)CO[C@@H]1C[C@@H]2O (stereo partly shown) [Compound 0549] | < 10
25 | CCC(=O)O[C@H]1C(=O)[C@@]2(C)C([C@H](OC(=O)c3ccccc3)[C@]3(O)C[C@H](OC(=O)[C@H](O)[C@@H](NC(=O)c4ccccc4)c4ccccn4)C(C)=C1C3(C)C)[C@]1(OC(C)=O)CO[C@@H]1C[C@@H]2O (stereo partly shown) [Compound 0634] | < 10
26 | CC(=O)OC12COC1CC(O)C1(C)C(=O)C(OC(=O)c3ccco3)C3=C(C)C(OC(=O)C(O)C(NC(=O)OC(C)(C)C)c4ccsc4)CC(O)(C(OC(=O)c4ccccc4)C21)C3(C)C (stereo not shown) [Compound 2173] | < 1
27 | C/C=C/C(=O)O[C@H]1C(=O)[C@@]2(C)C([C@H](OC(=O)c3ccccc3)[C@]3(O)C[C@H](OC(=O)[C@H](O)[C@@H](NC(=O)OC(C)(C)C)c4ccncc4)C(C)=C1C3(C)C)[C@]1(OC(C)=O)CO[C@@H]1C[C@@H]2O (stereo partly shown) [Compound 2366] | < 1
28 | CC(=O)O[C@@]12CO[C@@H]1C[C@H](O)[C@@]1(C)C(=O)[C@H](OC(=O)C3CC3)C3=C(C)[C@@H](OC(=O)[C@H](O)[C@@H](NC(=O)c4ccccc4)c4ccccn4)C[C@@](O)([C@@H](OC(=O)c4ccccc4)C12)C3(C)C (stereo partly shown) [Compound 2844] | < 10
29 | CCCC(=O)O[C@H]1C(=O)[C@@]2(C)C([C@H](OC(=O)c3ccccc3)[C@]3(O)C[C@H](OC(=O)[C@H](O)[C@@H](NC(=O)OC(C)(C)C)c4ccccn4)C(C)=C1C3(C)C)[C@]1(OC(C)=O)CO[C@@H]1C[C@@H]2O (stereo partly shown) [Compound 0951] | < 1
30 | C/C=C/C(=O)N[C@@H](c1cccs1)[C@@H](O)C(=O)O[C@H]1C[C@@]2(O)[C@@H](OC(=O)c3ccccc3)C3[C@](C)(C(=O)[C@H](OC(=O)CCC)C(=C1C)C2(C)C)[C@@H](O)C[C@H]1OC[C@@]31OC(C)=O (stereo partly shown) [Compound 3595] | < 1
31 | CCCC(=O)O[C@H]1C(=O)[C@@]2(C)C([C@H](OC(=O)c3ccccc3)[C@]3(O)C[C@H](OC(=O)[C@H](O)[C@@H](NC(=O)OC(C)(C)C)c4ccoc4)C(C)=C1C3(C)C)[C@]1(OC(C)=O)CO[C@@H]1C[C@@H]2O (stereo partly shown) [Compound 0999] | < 1
32 | C/C=C/C(=O)N[C@@H](c1ccco1)[C@@H](O)C(=O)O[C@H]1C[C@@]2(O)[C@@H](OC(=O)c3ccccc3)C3[C@](C)(C(=O)[C@H](OC(=O)CCC)C(=C1C)C2(C)C)[C@@H](O)C[C@H]1OC[C@@]31OC(C)=O (stereo partly shown) [Compound 3994] | < 1

Same assay, conditions: HCT116 colony formation; 72 h drug incubation, colonies counted after 7 days; Example 15, C-7 substituted acetate/C-10 hydroxy taxanes; read-out: IN VITRO ID 50 (nm) HCT116

Row | SMILES | IC50 [nM]
33 | C/C=C/C(=O)N[C@@H](c1ccco1)[C@@H](O)C(=O)O[C@H]1C[C@@]2(O)[C@@H](OC(=O)c3ccccc3)C3[C@](C)(C(=O)[C@H](O)C(=C1C)C2(C)C)[C@@H](OC(=O)COC)C[C@H]1OC[C@@]31OC(C)=O (stereo partly shown) [Compound 5835] | < 1

Same assay, conditions: HCT116 colony formation; 72 h drug incubation, colonies counted after 7 days; Example 20, C-10 substituted acetate/C-7 hydroxy taxanes; read-out: IN VITRO ID 50 (nm) HCT116

Row | SMILES | IC50 [nM]
34 | CCC(C)(C)OC(=O)NC(c1ccco1)C(O)C(=O)OC1CC2(O)C(OC(=O)c3ccccc3)C3C4(OC(C)=O)COC4CC(O)C3(C)C(=O)C(OC(=O)COC)C(=C1C)C2(C)C (stereo not shown) [Compound 6515, N-Debenzoyl-N-tert-amyloxycarbonyl-3′-desphenyl-3′-(2-furyl)-10-methoxyacetyl taxol] | < 1
